Our source for the Kd values is ChEMBL document CHEMBL3621134, “Cyclic Peptides Incorporating Phosphotyrosine Mimetics as Potent and Specific Inhibitors of the Grb7 Breast Cancer Target” (J Med Chem, 2015).

This assay addresses T1, Growth factor receptor-bound protein 10 (Homo sapiens, UniProt Q13322).
T1 sequence (Q13322 whole entry): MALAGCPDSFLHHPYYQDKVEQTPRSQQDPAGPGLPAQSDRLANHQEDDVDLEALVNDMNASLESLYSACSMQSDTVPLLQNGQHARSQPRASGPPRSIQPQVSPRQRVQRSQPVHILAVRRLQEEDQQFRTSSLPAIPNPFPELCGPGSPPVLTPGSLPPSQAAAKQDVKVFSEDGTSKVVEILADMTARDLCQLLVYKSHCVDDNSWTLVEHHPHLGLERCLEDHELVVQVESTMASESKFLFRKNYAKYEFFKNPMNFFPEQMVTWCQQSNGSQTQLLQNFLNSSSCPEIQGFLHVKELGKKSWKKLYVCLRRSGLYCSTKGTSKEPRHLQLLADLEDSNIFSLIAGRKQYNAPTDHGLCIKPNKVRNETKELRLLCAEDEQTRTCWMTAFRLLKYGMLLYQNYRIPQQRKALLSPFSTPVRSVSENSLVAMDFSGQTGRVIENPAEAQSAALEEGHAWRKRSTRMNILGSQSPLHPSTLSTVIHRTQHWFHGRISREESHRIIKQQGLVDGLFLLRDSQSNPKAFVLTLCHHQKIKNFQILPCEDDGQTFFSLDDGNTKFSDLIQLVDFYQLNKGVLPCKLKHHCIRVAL
The assay can be described thus: Binding affinity to GST-tagged Grb10-SH2 domain (471 to 594 amino acid residues) (unknown origin) expressed in Escherichia coli BL21 (DE3) using 20 mM Tris/1 mM NaPO4 buffer by SPR analysis.

For `C[C@@H](O)[C@@H]1NC(=O)[C@H](CC(N)=O)NC(=O)[C@H](CC(=O)O)NC(=O)[C@H](Cc2ccc(O)cc2)NC(=O)CNC(=O)[C@H](CCC(=O)O)NC(=O)[C@H](Cc2ccccc2)NC(=O)[C@H](Cc2c[nH]c3ccccc23)NC(=O)CSC[C@@H](C(N)=O)NC(=O)[C@@H]2CCCN2C(=O)[C@H](Cc2ccccc2)NC1=O`, the Kd entry was “Not Active”.
